{"source": "patent US20240210412A1", "about": "“SULFONYL-TRIAZOLE COMPOUNDS USEFUL AS LIGANDS AND INHIBITORS OF PROSTAGLANDIN REDUCTASE 2” (University of Virginia Patent Foundation, priority 2021, published 2024)", "test_in_all_cases": "SILAC LC-MS ABPP", "format_in_all_cases": "cell-based", "settings_in_all_cases": "25 μM 2 h, live DM93 cells", "key": {"Q9NYF8": {"target": "T1, Q9NYF8 (Homo sapiens, UniProt Q9NYF8)", "T1 construct": "endogenous in cells; host or cells: DM93 cells (SILAC)", "T1 sequence (Q9NYF8 whole entry)": "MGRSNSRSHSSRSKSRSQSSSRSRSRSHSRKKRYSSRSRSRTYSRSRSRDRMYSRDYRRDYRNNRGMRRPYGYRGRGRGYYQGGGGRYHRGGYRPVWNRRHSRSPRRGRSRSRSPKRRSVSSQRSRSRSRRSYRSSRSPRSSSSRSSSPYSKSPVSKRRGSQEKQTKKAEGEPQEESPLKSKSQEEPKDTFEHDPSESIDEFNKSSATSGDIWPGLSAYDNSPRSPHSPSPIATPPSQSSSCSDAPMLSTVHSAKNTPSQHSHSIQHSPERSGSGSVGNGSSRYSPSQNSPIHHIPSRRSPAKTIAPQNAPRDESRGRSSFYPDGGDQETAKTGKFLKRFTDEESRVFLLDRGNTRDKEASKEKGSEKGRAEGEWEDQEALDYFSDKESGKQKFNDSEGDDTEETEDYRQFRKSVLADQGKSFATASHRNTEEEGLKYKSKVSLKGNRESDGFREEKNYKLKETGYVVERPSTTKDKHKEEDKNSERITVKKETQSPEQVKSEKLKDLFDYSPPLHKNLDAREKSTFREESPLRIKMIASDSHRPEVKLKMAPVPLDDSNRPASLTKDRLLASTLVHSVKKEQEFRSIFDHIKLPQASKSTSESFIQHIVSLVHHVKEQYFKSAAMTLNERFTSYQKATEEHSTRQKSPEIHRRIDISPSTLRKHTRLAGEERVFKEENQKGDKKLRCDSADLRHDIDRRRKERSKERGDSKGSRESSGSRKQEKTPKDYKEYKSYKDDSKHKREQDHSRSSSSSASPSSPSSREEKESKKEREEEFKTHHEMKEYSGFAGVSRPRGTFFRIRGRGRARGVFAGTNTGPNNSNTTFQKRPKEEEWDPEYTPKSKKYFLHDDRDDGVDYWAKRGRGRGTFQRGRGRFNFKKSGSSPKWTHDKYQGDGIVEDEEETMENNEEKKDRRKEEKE", "procedure,_shortened": "(§1)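 HHS-475 probe (100 μM, 2 h, 37 °C) was applied after a 2 h pretreatment with either 25 μM SuTEx ligand (heavy DM93 cells) or DMSO (light). Probe-labelled soluble proteins were conjugated to desthiobiotin-azide, combined equally, digested and quantified by LC-MS/MS.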"}, "Q7Z460": {"target": "T2, Q7Z460 (Homo sapiens, UniProt Q7Z460)", "T2 construct": "endogenous in cells; host or cells: DM93 cells (SILAC), live-cell treatment", "procedure,_shortened": "as §1"}, "P25789": {"target": "T3, P25789 (Homo sapiens, UniProt P25789)", "T3 construct": "endogenous in cells; host or cells: DM93 (SILAC)", "procedure,_shortened": "as §1"}, "Q13151": {"target": "T4, Q13151 (Homo sapiens, UniProt Q13151)", "T4 construct": "performing SuTEx compound screening directly in cells; endogenous in cells; host or cells: DM93 cells (SILAC), soluble fraction", "procedure,_shortened": "as §1"}, "Q13033": {"target": "T5, Q13033 (Homo sapiens, UniProt Q13033)", "T5 construct": "performing SuTEx compound screening directly in cells; endogenous in cells; host or cells: DM93 cells (SILAC), soluble fraction", "T5 sequence (Q13033 whole entry)": "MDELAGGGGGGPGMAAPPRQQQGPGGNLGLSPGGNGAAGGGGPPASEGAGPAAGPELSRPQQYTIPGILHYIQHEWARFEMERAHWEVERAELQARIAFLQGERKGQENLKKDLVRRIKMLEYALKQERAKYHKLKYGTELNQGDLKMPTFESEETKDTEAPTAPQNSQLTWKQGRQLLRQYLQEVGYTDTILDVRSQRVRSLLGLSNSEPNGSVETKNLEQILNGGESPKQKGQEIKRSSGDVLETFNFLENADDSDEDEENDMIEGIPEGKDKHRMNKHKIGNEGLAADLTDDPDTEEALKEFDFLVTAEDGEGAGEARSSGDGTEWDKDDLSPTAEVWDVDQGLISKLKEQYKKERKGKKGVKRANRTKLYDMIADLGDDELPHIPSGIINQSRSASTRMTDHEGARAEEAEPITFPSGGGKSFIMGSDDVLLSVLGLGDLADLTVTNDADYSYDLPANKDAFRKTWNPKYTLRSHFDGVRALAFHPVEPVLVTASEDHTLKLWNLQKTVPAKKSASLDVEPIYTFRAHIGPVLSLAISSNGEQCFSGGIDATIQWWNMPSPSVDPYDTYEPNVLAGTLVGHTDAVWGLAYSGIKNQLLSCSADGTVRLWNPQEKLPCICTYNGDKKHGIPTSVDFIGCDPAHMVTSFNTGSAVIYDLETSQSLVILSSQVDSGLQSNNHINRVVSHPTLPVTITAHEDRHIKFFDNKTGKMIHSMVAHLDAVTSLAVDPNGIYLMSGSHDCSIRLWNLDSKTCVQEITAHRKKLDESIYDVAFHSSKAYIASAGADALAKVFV", "procedure,_shortened": "as §1"}, "P62277": {"target": "T6, P62277 (Homo sapiens, UniProt P62277)", "T6 construct": "performing SuTEx compound screening directly in cells; endogenous in cells; host or cells: DM93 cells (SILAC)", "procedure,_shortened": "as §1"}, "Q01082": {"target": "T7, Q01082 (Homo sapiens, UniProt Q01082)", "T7 construct": "performing SuTEx compound screening directly in cells; endogenous in cells; host or cells: DM93 cells (SILAC)", "T7 sequence (Q01082 whole entry)": "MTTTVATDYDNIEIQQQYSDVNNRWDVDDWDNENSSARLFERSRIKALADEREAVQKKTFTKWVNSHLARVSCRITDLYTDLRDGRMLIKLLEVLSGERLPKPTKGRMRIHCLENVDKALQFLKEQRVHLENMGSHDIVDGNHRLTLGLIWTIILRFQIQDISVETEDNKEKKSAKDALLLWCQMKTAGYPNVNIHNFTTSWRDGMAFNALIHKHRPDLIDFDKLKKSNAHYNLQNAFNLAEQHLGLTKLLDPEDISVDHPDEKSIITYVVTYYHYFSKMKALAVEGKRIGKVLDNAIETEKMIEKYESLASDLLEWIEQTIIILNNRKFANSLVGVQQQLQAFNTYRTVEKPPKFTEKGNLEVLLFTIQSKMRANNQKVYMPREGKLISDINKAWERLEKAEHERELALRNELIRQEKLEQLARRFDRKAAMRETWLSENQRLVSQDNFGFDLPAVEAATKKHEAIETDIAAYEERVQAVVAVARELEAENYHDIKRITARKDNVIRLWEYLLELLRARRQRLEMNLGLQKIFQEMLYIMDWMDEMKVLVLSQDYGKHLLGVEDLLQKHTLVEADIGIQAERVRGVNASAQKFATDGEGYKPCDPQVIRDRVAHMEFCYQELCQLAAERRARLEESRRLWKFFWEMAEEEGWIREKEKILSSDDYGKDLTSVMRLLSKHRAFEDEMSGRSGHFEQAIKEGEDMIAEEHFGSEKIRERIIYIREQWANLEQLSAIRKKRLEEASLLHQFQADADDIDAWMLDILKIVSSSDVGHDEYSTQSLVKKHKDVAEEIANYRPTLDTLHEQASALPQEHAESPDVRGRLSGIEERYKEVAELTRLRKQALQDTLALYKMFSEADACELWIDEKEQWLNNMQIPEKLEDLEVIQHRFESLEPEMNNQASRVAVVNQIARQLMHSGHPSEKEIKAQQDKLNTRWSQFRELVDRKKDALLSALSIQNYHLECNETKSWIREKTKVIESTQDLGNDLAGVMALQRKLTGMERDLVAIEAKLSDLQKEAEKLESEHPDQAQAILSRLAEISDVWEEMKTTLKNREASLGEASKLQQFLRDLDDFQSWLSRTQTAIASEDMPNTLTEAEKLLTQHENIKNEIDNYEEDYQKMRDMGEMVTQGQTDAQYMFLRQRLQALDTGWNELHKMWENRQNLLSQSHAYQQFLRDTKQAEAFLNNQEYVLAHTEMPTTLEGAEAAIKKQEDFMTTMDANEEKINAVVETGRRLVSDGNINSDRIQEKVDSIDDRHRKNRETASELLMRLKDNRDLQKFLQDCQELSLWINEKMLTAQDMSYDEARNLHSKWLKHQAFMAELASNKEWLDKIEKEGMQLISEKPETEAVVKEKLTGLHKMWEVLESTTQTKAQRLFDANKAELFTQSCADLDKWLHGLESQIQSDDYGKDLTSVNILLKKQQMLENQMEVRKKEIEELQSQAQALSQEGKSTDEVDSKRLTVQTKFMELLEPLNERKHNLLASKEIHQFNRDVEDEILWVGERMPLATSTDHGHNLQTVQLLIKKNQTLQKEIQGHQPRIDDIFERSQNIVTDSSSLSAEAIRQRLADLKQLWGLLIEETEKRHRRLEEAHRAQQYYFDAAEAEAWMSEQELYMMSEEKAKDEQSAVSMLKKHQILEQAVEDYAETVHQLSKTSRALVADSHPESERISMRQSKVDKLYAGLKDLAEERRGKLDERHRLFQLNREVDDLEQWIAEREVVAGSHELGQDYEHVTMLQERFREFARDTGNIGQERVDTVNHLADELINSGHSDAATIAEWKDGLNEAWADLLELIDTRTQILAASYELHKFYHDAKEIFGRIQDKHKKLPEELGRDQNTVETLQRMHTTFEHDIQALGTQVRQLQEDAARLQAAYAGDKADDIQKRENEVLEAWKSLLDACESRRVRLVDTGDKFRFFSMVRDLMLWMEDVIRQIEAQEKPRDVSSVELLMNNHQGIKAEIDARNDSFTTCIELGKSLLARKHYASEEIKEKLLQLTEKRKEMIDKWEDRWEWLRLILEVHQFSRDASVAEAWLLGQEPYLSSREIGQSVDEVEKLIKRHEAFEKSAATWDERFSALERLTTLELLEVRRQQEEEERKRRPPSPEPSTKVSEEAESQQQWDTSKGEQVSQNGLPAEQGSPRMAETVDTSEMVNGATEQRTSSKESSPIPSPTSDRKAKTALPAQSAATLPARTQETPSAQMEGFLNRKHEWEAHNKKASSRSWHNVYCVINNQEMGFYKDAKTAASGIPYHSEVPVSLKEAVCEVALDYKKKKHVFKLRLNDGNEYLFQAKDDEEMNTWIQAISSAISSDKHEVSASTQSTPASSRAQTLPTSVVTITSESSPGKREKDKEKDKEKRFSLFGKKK", "procedure,_shortened": "as §1"}, "Q92804": {"target": "T8, Q92804 (Homo sapiens, UniProt Q92804)", "T8 construct": "endogenous in cells; host or cells: DM93 cells (SILAC), live-cell treatment", "procedure,_shortened": "as §1"}, "Q13107": {"target": "T9, Q13107 (Homo sapiens, UniProt Q13107)", "T9 construct": "performing SuTEx compound screening directly in cells; endogenous in cells; host or cells: DM93 cells (SILAC), soluble fraction", "T9 sequence (Q13107 whole entry)": "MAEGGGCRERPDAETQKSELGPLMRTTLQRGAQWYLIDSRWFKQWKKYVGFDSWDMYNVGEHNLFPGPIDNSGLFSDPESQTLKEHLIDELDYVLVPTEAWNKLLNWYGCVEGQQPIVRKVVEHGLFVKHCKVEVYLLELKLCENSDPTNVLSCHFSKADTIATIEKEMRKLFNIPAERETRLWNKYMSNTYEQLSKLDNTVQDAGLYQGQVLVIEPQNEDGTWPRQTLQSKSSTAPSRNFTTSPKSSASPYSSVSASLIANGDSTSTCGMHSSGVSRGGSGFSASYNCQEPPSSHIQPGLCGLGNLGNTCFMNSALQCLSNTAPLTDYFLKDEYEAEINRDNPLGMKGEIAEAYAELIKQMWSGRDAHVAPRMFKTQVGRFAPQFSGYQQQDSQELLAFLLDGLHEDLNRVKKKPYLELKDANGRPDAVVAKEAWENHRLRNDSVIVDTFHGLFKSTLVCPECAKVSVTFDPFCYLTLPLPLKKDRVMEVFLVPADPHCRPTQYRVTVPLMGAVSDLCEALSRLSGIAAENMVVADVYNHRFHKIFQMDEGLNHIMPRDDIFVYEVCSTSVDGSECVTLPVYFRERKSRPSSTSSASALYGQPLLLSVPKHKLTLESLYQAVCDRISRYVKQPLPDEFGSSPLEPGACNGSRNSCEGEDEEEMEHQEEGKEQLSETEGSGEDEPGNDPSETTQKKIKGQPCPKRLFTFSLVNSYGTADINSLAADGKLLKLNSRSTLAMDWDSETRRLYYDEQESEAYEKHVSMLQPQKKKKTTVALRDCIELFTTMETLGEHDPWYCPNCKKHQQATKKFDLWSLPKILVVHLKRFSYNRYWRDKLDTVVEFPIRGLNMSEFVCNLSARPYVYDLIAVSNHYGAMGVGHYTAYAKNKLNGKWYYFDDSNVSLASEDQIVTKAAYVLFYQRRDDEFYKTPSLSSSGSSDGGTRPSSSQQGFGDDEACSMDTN", "procedure,_shortened": "as §1"}, "P17066": {"target": "T10, P17066 (Homo sapiens, UniProt P17066)", "T10 construct": "Probe-modified proteins from the soluble fraction were conjugated to a desthiobiotin-azide tag; endogenous in cells; host or cells: DM93 (SILAC)", "procedure,_shortened": "as §1"}, "P46013": {"target": "T11, P46013 (Homo sapiens, UniProt P46013)", "T11 construct": "endogenous in cells; host or cells: DM93 cells (SILAC)", "procedure,_shortened": "as §1"}, "P50851": {"target": "T12, P50851 (Homo sapiens, UniProt P50851)", "T12 construct": "Probe-modified proteins from the soluble fraction were conjugated to a desthiobiotin-azide tag; endogenous in cells; host or cells: DM93 cells (SILAC)", "procedure,_shortened": "as §1"}, "P06132": {"target": "T13, P06132 (Homo sapiens, UniProt P06132)", "T13 construct": "endogenous in cells; host or cells: DM93 cells (SILAC)", "procedure,_shortened": "as §1"}, "Q14914": {"target": "T14, Q14914 (Homo sapiens, UniProt Q14914)", "T14 construct": "performing SuTEx compound screening directly in cells; endogenous in cells; host or cells: DM93 cells (SILAC), soluble fraction", "procedure,_shortened": "as §1"}, "Q96BR5": {"target": "T15, Q96BR5 (Homo sapiens, UniProt Q96BR5)", "T15 construct": "endogenous in cells; host or cells: DM93 cells (SILAC), treated live; soluble proteome analysed", "procedure,_shortened": "as §1"}, "O00267": {"target": "T16, O00267 (Homo sapiens, UniProt O00267)", "T16 construct": "endogenous in cells; host or cells: DM93", "procedure,_shortened": "as §1"}, "Q13535": {"target": "T17, Q13535 (Homo sapiens, UniProt Q13535)", "T17 construct": "performing SuTEx compound screening directly in cells; endogenous in cells; host or cells: DM93 cells (SILAC), soluble fraction", "procedure,_shortened": "as §1"}}, "data": [{"smiles": "O=C(NC1CC1)c1ccc(S(=O)(=O)n2cncn2)cc1", "note": "[HHS-0101, 4-((1H-1,2,4-triazol-1-yl)sulfonyl)-N-cyclopropylbenzamide]", "values": [{"measurement": "liganded tyrosine site 322", "setting": "Q9NYF8", "value": "HHS0101.Y|HHS0201.Y|HHS0301.Y|HHS0401.Y (tyrosine sites that showed >80% reductions (SR >5) in probe labeling in cells treated with compounds (liganded sites))"}, {"measurement": "liganded tyrosine site 1267", "setting": "Q7Z460", "value": "HHS0101.Y|HHS0301.Y|HHS0401.Y (tyrosine sites that showed >80% reductions (SR >5) in probe labeling in cells treated with compounds (liganded sites))"}, {"measurement": "liganded tyrosine site 19", "setting": "P25789", "value": "HHS0101.Y (tyrosine sites that showed >80% reductions (SR >5) in probe labeling in cells treated with compounds (liganded sites))"}, {"measurement": "liganded tyrosine site 66", "setting": "P25789", "value": "HHS0101.Y|HHS0201.Y|HHS0301.Y (tyrosine sites that showed >80% reductions (SR >5) in probe labeling in cells treated with compounds (liganded sites))"}, {"measurement": "liganded tyrosine site 180", "setting": "Q13151", "value": "HHS0101.Y (tyrosine sites that showed >80% reductions (SR >5) in probe labeling in cells treated with compounds (liganded sites))"}, {"measurement": "liganded tyrosine site 137", "setting": "Q13033", "value": "HHS0101.Y|HHS0401.Y (tyrosine sites that showed >80% reductions (SR >5) in probe labeling in cells treated with compounds (liganded sites))"}, {"measurement": "liganded tyrosine site 38", "setting": "P62277", "value": "HHS0101.Y (tyrosine sites that showed >80% reductions (SR >5) in probe labeling in cells treated with compounds (liganded sites))"}, {"measurement": "liganded tyrosine site 777", "setting": "Q01082", "value": "HHS0101.Y|HHS0201.Y|HHS0401.Y (tyrosine sites that showed >80% reductions (SR >5) in probe labeling in cells treated with compounds (liganded sites))"}]}, {"smiles": "O=C(NCC1CC1)c1ccc(S(=O)(=O)n2cncn2)cc1", "note": "[HHS-0201, 4-((1H-1,2,4-triazol-1-yl)sulfonyl)-N-(cyclopropylmethyl)benzamide]", "values": [{"measurement": "liganded tyrosine site 170", "setting": "Q92804", "value": "HHS0201.Y|HHS0301.Y (tyrosine sites that showed >80% reductions (SR >5) in probe labeling in cells treated with compounds (liganded sites))"}, {"measurement": "liganded tyrosine site 192", "setting": "Q13107", "value": "HHS0201.Y|HHS0301.Y (tyrosine sites that showed >80% reductions (SR >5) in probe labeling in cells treated with compounds (liganded sites))"}]}, {"smiles": "O=C(NC1CCCCC1)c1ccc(S(=O)(=O)n2cncn2)cc1", "note": "[HHS-0301, 4-((1H-1,2,4-triazol-1-yl)sulfonyl)-N-cyclohexylbenzamide]", "values": [{"measurement": "liganded tyrosine site 373", "setting": "P17066", "value": "HHS0301.Y (tyrosine sites that showed >80% reductions (SR >5) in probe labeling in cells treated with compounds (liganded sites))"}]}, {"smiles": "O=C(NCc1ccccc1)c1ccc(S(=O)(=O)n2cncn2)cc1", "note": "[HHS-0401, 4-((1H-1,2,4-triazol-1-yl)sulfonyl)-N-benzylbenzamide]", "values": [{"measurement": "liganded tyrosine site 340", "setting": "P46013", "value": "HHS0401.Y|HHS0701.Y (tyrosine sites that showed >80% reductions (SR >5) in probe labeling in cells treated with compounds (liganded sites))"}, {"measurement": "liganded tyrosine site 2656", "setting": "P50851", "value": "HHS0401.Y (tyrosine sites that showed >80% reductions (SR >5) in probe labeling in cells treated with compounds (liganded sites))"}, {"measurement": "liganded tyrosine site 164", "setting": "P06132", "value": "HHS0401.Y (tyrosine sites that showed >80% reductions (SR >5) in probe labeling in cells treated with compounds (liganded sites))"}, {"measurement": "liganded tyrosine site 262", "setting": "Q14914", "value": "HHS0401.Y (tyrosine sites that showed >80% reductions (SR >5) in probe labeling in cells treated with compounds (liganded sites))"}, {"measurement": "liganded tyrosine site 72", "setting": "Q96BR5", "value": "HHS0401.Y (tyrosine sites that showed >80% reductions (SR >5) in probe labeling in cells treated with compounds (liganded sites))"}]}, {"smiles": "O=C(c1ccc(S(=O)(=O)n2cncn2)cc1)N1CCC(c2ccccc2)CC1", "note": "[HHS-0701, (4-((1H-1,2,4-triazol-1-yl)sulfonyl)phenyl)(4-phenylpiperidin-1-yl)methanone]", "values": [{"measurement": "liganded tyrosine site 249", "setting": "O00267", "value": "HHS0701.Y (tyrosine sites that showed >80% reductions (SR >5) in probe labeling in cells treated with compounds (liganded sites))"}, {"measurement": "liganded tyrosine site 2067", "setting": "Q13535", "value": "HHS0701.Y (tyrosine sites that showed >80% reductions (SR >5) in probe labeling in cells treated with compounds (liganded sites))"}]}]}
